This note sets out measurements from PMC9000738, “Diterpenoid Alkaloids Isolated from Delphinium brunonianum and Their Inhibitory Effects on Hepatocytes Lipid Accumulation” (Molecules, 2022).

Like-named read-outs stand apart in the source and are kept apart here. Where only a bound is given, the exact number is not on record here.

In series [1] the test system is FFA-induced HepG2 cells. Kind of series: TG secretion assay in FFA-induced HepG2 cells. It counts as cell-based. The following applies: 10 µM, 1 mM FFA-induced HepG2 cells. Here is the method: Figure S78. Effects of compounds (4, 5, 7, 8, and 12) on TG level in FFA-induced HepG2 cells. HepG2 cells were treated with a mixture of 1 mM FFA in the absence o r presence of compounds (4, 5, 7, 8, and 12) at the concentration of 10 µM. The values are presented as mean ± SEM of six independent experiments. ### p < 0.001, vs. the control group; * p < 0.05, ** p < 0.01, vs. the model group. […]

In series [2] the test system is FFA-induced BRL cells. Kind of series: Oil red O staining of lipid droplets and quantitative analysis in FFA-induced BRL cells. It counts as cell-based, rat. The following applies: 10 µM, 0.5 mM FFA-induced BRL cells; for fold change of red-stained cell area (quantitative analysis of lipid accumulation): ImageJ, p < 0.001 vs. model group; for lipid accumulation by oil red O staining: vs. model group. Here is the method:
Combined with the oil red O staining and quantitative analysis assay, the effect of reducing lipid accumulation of compounds 4, 5, 7, 8, and 12 was performed in FFA-induced BRL cells. […] Quantitative analysis of lipid accumulation was also analyzed by ImageJ 1.8.0 software by calculating the area of red-stained cells (Figure 7C).
BRL cells were plated in 96-well plates until reaching 70–80% confluence and treated with 0.5 mM FFA mixture and the tested compounds for 24 h. Controls were incubated for the same period in complete medium.
After 24 h of incubation, the cells were fixed with 5% formalin solution for 30 min and then incubated with oil red O working solution for 15 min at room temperature. After that, the cells were washed once with 60% isopropanol and three times with water. The nuclei were stained with hematoxylin solution for 2 min at room temperature. Then, the operation of oil red O staining was referred to the previous research. Finally, the red oil droplets were observed using an optical microscope.

Series [3] deals with FFA-induced HepG2 cells. Kind of series: Oil red O staining in FFA-induced HepG2 cells. The format is cell-based. Conditions: 10 µM, 1 mM FFA-induced HepG2 cells. The procedure:
Figure S79. Oil red O staining of lipid droplets and quantitative analysis in HepG2 cells treated with or without 1 mM FFA mixed compounds 4, 5, 7, 8, and 12 (10 µM), 400 ×; The images shown about quantitative analysis s of red stained cells are representatives of 3 replicates of each. The values are presented as mean ± SEM. ### p < 0.001, vs. the control group; * p < 0.05, ** p < 0.01, vs. the model group. […]

Series [4] concerns FFA-induced BRL cells. It counts as cell-based, rat. The following applies: for TG level (TG secretion, lipid accumulation): 10 μM, 24 h, vs. model group; for TG level (TG secretion, lipid accumulation) / TC level / TG level / ALT level / AST level: 0.5 mM FFA-induced BRL cells; for TC level / TG level / ALT level / AST level: 1, 5 or 10 µM; for ALT level / AST level: medium; for inhibitory effects on hepatocytes lipid accumulation: FFA-induced BRL cells, 1, 5 and 10 µM. Here is the method: We selected FFA-induced BRL cells (oleate and palmitate ratio was 2:1) to establish a cellular NAFLD model, which is a widely used method by researchers for studying diseases related to hepatocytes lipid accumulation. The TG secretion was measured to preliminarily evaluate the inhibitory effect on lipid accumulation of 15 isolated alkaloid compounds. […] Compounds 1–15 were tested at a concentration of 10 μM in FFA-induced BRL cells to determine their inhibitory effects on hepatocytes TG secretion (Figure 5). Atorvastatin calcium (ATC) is a statin cholesterol-lowering drug and widely used in the clinical treatment of hyperlipidemia and NAFLD, etc.. Therefore, we used atorvastatin calcium (ATC, 10 µM) as a positive control drug.
BRL cells were grown in 24-well plates until 70–80% confluence. Subsequently, 0.5 mM FFA (oleate and palmitate in a final ratio of 2:1) was applied for 24 h to establish an in vitro model of hepatocytes lipid accumulation in the model group, treated with 0.5 mM FFA combination with 1, 5, or 10 µM isolated compounds for 24 h in alkaloids groups. A portion of 1% bovine serum albumin (BSA) was added in BRL cells of the control group. Then, the medium of each group was collected for determination of ALT and AST levels by commercial kits. After removing the medium, 200 µL of 0.25% trypsin was added to digest the cells in 37 °C for 2 min. Then, 500 µL of DMEM that contained 10% fetal bovine serum (FBS) was added to stop digesting. Cells suspension was centrifuged at 800 r/min for 3 min. After adding 200 µL of ethanol, cells were collected and crushed by ultrasonic cell disruptor at 4 °C. Part of the cell fragmentation solution was used for the determination of cell protein content, the other part was used to determine TG and TC levels by commercial kits according to the manufacturer’s instruction.

Another series relates to BRL cells. Kind of series: Cell viability by CCK-8 assay in BRL cells. It counts as cell-based. Conditions: Rattus norvegicus. The procedure: The cell viability (%) of the isolated diterpenoid alkaloids in the concentration range of 1–500 μM and the time-effectiveness of them for 24 h and 48 h were evaluated using CCK-8 assay (Figure 4). […] The IC50 values of 15 compounds and positive drug were calculated by SPSS 23.0 software. […] Therefore, through the entire experiments, the maximum concentration of tested diterpenoid alkaloids was limited to 10 μM, a concentration about one-tenth to one-fiftieth of IC50 of them. In addition, optimum dosage of modeling agent (FFA) was also selected as the concentration of 0.5 mM through CCK-8 assay (Figure S77).
Buffalo rat liver (BRL) cells were obtained from the Cell Bank, Committee for Typical Culture Preservation, Chinese Academy of Sciences. BRL cells were cultured in DMEM (containing 10% fetal bovine serum and 1% penicillin/streptomycin) under humidified 5% CO2 (v/v) atmosphere at 37 °C. To determine the cell viability of compounds 1–15, the CCK-8 assay was performed. The fifteen isolated compounds were dissolved in DMSO and diluted 1:1000 in culture medium, respectively. Cells were seeded in 96-well plates (6 × 10^3 cells per well) for 24 h incubation and then treatment with different concentrations (1, 10, 20, 50, 100, 200, and 500 µM) of each compound for 24 h or 48 h, respectively. CCK-8 solution (10% of the total solution) was added to each well, further incubated for 1 h at 37 °C. The absorbance was measured at 450 nm using a Multimode Microplate Reader.

[5] abbreviates: BRL cells, CCK-8 assay, concentration range 1–500 μM, incubation time (24 h or 48 h) not stated, read-out: IC50.

Take `CCN1CC2(COC)CCC(OC)C34C5CC6C(OC)CC7(OCOC7(C(OC)C23)C14)C5C6O` (stereo not shown) [Compound 5, delbruline]: in the series with FFA-induced HepG2 cells [1], the “lipid accumulation by TG secretion assay” value was “good inhibitory effects on lipid accumulation”. Moreover, in the series with FFA-induced BRL cells [2], the “fold change of red-stained cell area (quantitative analysis of lipid accumulation)” value (shortened to “fold change of red-stained cell area”) was “less than the model group” and the “lipid accumulation by oil red O staining” value is “significantly reduce lipid accumulation”. For the same molecule, in the series on FFA-induced HepG2 cells [3], the “lipid accumulation by oil red O evaluation” value was “good inhibitory effects on lipid accumulation”. Besides, in the series with FFA-induced BRL cells [4], the “TG level (TG secretion, lipid accumulation)” value is reported as “better than that of the positive control drug”; the TC level entry is listed as “ameliorated”; the TG level result is “ameliorated”; the ALT level entry is “ameliorated”. In addition, in the series with FFA-induced BRL cells [4], the AST level entry is reported as “ameliorated” and the “inhibitory effects on hepatocytes lipid accumulation” value (from here on “inhibitory effects”) was “strong inhibitory effects on hepatocytes lipid accumulation in a dose-dependent manner”. The IC50 in the series on BRL cells (setting [5]) was greater than 500 µM.
`CCN1C[C@]2(C)CC[C@H](OC)[C@@]34C1[C@@]1(OCO[C@@]15C[C@H](OC)[C@H]1C[C@@H]3[C@@H]5[C@H]1O)[C@@H](O)[C@H]24` [Compound 6, delpheline] returned an IC50 in the series on BRL cells greater than 500 µM.
Turning to `CCN1C[C@]2(CO)CC[C@H](OC)[C@@]34[C@@H]5C[C@H]6[C@H](OC)[C@@H]5[C@](O)(C[C@@H]6OC)[C@](O)([C@@H](OC)[C@H]23)[C@@H]14` [Compound 7, lycoctonine], in the series on FFA-induced HepG2 cells [1], the “lipid accumulation by TG secretion assay” value is “good inhibitory effects on lipid accumulation”. In the series on FFA-induced BRL cells [2], the “fold change of red-stained cell area” value was “less than the model group” and the “lipid accumulation by oil red O staining” value is “significantly reduce lipid accumulation”. Also, the “lipid accumulation by oil red O evaluation” value with FFA-induced HepG2 cells [3] is given as “good inhibitory effects on lipid accumulation”. In addition, in the series with FFA-induced BRL cells [4], the “TG level (TG secretion, lipid accumulation)” value was “better than that of the positive control drug”; the TC level result is “ameliorated”; the TG level entry was “ameliorated”; the ALT level result is listed as “ameliorated”. Besides, in the series with FFA-induced BRL cells [4], the AST level result is “ameliorated” and the “inhibitory effects” value was “strong inhibitory effects on hepatocytes lipid accumulation in a dose-dependent manner”. The IC50 with BRL cells (setting [5]) was greater than 500 µM.
With `CCN1CC2(COC)CCC(O)C34C5CC6C(OC)CC7(OCOC7(C(OC)C23)C14)C5C6O` (stereo not shown) [Compound 8, delbrunine], the “lipid accumulation by TG secretion assay” value in the series with FFA-induced HepG2 cells [1] is “good inhibitory effects on lipid accumulation”. Moreover, in the series on FFA-induced BRL cells [2], the “fold change of red-stained cell area” value is reported as “less than the model group” and the “lipid accumulation by oil red O staining” value was “significantly reduce lipid accumulation”. In the series with FFA-induced HepG2 cells [3], the “lipid accumulation by oil red O evaluation” value is given as “good inhibitory effects on lipid accumulation”. In addition, in the series with FFA-induced BRL cells [4], the “TG level (TG secretion, lipid accumulation)” value is listed as “better than that of the positive control drug”; the TC level entry was “ameliorated”; the TG level result is “ameliorated”; the ALT level entry was “ameliorated”. Further, in the series on FFA-induced BRL cells [4], the AST level entry was “ameliorated” and the “inhibitory effects” value is given as “strong inhibitory effects on hepatocytes lipid accumulation in a dose-dependent manner”. In addition, the half-maximal inhibitory concentration (IC50) in the series with BRL cells (setting [5]) was found to be 408 µM.
For `CCN1CC2(COC)CCC(O)C34C5CC6C(OC)CC(O)(C5C6O)C(O)(C(OC)C23)C14` (stereo not shown) [Compound 9, delcosine], the concentration for half-maximal inhibition (IC50) in the series on BRL cells was greater than 500 µM.
`CCN1CC2(COC)CCC(O)C34C5CC6C(OC)CC7(OCOC7(C(O)C23)C14)C5C6OC` (stereo not shown) [Compound 10, uraphine] displayed an IC50 with BRL cells greater than 500 µM.
On to `CCN1C[C@]2(COC(=O)c3ccccc3N)CC[C@H](OC)[C@]34C1[C@](O)([C@@H](OC)[C@H]23)[C@@]1(O)C[C@H](OC)[C@H]2C[C@@H]4[C@@H]1[C@H]2OC` [Compound 11, anthranoyllycoctonine], for which the IC50 in the series with BRL cells (setting [5]) was in the range of 300 to 500 µM.
Regarding `CCN1CC2(COC)CCC(OC)C34C5CC6C(OC)CC(O)(C5C6O)C(O)(C(OC)C23)C14` (stereo not shown) [Compound 13, browniine], the IC50 in the series with BRL cells is greater than 500 µM.
With `CCN1CC2(COC(=O)c3ccccc3NC(=O)C(C)CC(=O)O)CCC(OC)C34C5CC6C(OC)CC(O)(C5C6OC)C(O)(C(OC)C23)C14` (stereo not shown) [Compound 14, shawurensine], the “TG level (TG secretion, lipid accumulation)” value in the series with FFA-induced BRL cells [4] is on record as “had the effect of inhibiting the lipid accumulation (TG secretion)”. In addition, the IC50 in the series with BRL cells was greater than 500 µM.
On to `CCN1CC2(COC(=O)c3ccccc3NC(=O)CC(C)C(=O)O)CCC(OC)C34C5CC6C(OC)CC(O)(C5C6OC)C(O)(C(OC)C23)C14` (stereo not shown) [Compound 15, delavaine B], for which, in the series with FFA-induced BRL cells [4], the “TG level (TG secretion, lipid accumulation)” value was “had the effect of inhibiting the lipid accumulation (TG secretion)”. The molecule also came in with an IC50 in the series on BRL cells greater than 500 µM.
As for `CC(C)c1c(C(=O)Nc2ccccc2)c(-c2ccccc2)c(-c2ccc(F)cc2)n1CC[C@@H](O)C[C@@H](O)CC(=O)O` [positive (ATC), Atorvastatin calcium, reference compound], the IC50 in the series with BRL cells (setting [5]) stood at 88.4 µM.
